The assay concerns the target T1, RORc ligand binding domain (Homo sapiens, UniProt P51449).
T1 construct: host or cells: E. coli
T1 sequence (P51449 269-508 limits assumed): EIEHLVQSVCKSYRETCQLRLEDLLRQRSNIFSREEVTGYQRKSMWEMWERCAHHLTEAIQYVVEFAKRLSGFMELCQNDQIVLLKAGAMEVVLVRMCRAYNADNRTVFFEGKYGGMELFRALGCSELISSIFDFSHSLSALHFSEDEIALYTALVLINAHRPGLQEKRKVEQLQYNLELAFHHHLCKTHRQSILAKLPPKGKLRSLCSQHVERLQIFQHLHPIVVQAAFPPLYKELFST
In words: In Vitro RORc Ligand Binding Assay (25-[3H]hydroxycholesterol radioligand filtration). The note with it: read-out: RORc IC50.

[1] abbreviates: In Vitro RORc Ligand Binding Assay, Table 4.

Where two headings read alike, the source gives them in different places.

One may read the IC50 as the concentration that gives 50% inhibition.

Consider `CC(=O)N1CCN(c2ccc(CN3[C@@H](C)CCC(c4ccccc4)S3(=O)=O)c(F)c2)[C@@H](C(=O)O)C1` (stereo partly drawn) [Example 434, (R)-4-Acetyl-1-[3-fluoro-4-((3S)-methyl-1,1-dioxo-6-phenyl-[1,2]thiazinan-2-ylmethyl)-phenyl]-piperazine-2-carboxylic acid], for which the IC50 worked out at 1130 nM.

For the molecule `CC(=O)N1CCN(c2ccc(CN3[C@@H](C)CCC(c4ccccc4Cl)S3(=O)=O)c(F)c2)CC1` (single isomer, unassigned) [Example 201], the IC50 under setting [1] came to 183 nM. Turning to `C[C@H]1CCC(c2ccccc2)S(=O)(=O)N1Cc1ccc(OCCN2CCOCC2)cc1` (stereo partly drawn) [Example 438, 4-{2-[4-((3S)-Methyl-1,1-dioxo-6-phenyl-[1,2]thiazinan-2-ylmethyl)-phenoxy]-ethyl}-morpholine], the IC50 is 665 nM. `CC(=O)N1CCN(c2ccc(CN3[C@@H](C)CCC(c4ccccc4)S3(=O)=O)c(F)c2)C[C@H]1CO` (stereo partly drawn) [Example 378, 1-{(S)-4-[3-Fluoro-4-((3S)-methyl-1,1-dioxo-6-phenyl-[1,2]thiazinan-2-ylmethyl)-phenyl]-2-hydroxymethyl-piperazin-1-yl}-ethanone]: the IC50 under setting [1] is 61 nM. On to `C[C@H]1CCC(c2ccccc2)S(=O)(=O)N1Cc1ccc(C(=O)NC2CN(C(N)=O)C2)cc1` (stereo partly drawn) [Example 390, 3-[4-((3S)-Methyl-1,1-dioxo-6-phenyl-[1,2]thiazinan-2-ylmethyl)-benzoylamino]-azetidine-1-carboxylic acid amide], for which the IC50 under setting [1] is 5460 nM.

With `C[C@H]1CCC(c2ccccc2)S(=O)(=O)N1Cc1ccc(NC(=O)C2CCN(S(C)(=O)=O)CC2)cc1F` (stereo partly drawn) [Example 459, 1-Methanesulfonyl-piperidine-4-carboxylic acid [3-fluoro-4-((3S)-methyl-1,1-dioxo-6-phenyl-[1,2]thiazinan-2-ylmethyl)-phenyl]-amide], the IC50 is 74 nM. As to `C[C@H]1CCC(c2ccccc2)S(=O)(=O)N1Cc1ccc(N2CCC(S(=O)(=O)N(C)C)CC2)cc1F` (single isomer, unassigned) [Example 109], the IC50 under setting [1] stood at 34 nM. Turning to `C[C@H]1CCC(c2ccccc2)S(=O)(=O)N1Cc1ccc(N2CCN(c3ncncn3)CC2)cc1F` (stereo partly drawn) [Example 442, 2-{4-[3-Fluoro-4-((3S)-methyl-1,1-dioxo-6-phenyl-[1,2]thiazinan-2-ylmethyl)-phenyl]-piperazin-1-yl}-[1,3,5]triazine], the IC50 was determined as 37 nM. Regarding `CC(=O)N1CCN(c2ccc(CN3CC(C)CCC(c4ccccc4)S3(=O)=O)c(F)c2)CC1` (single isomer, unassigned) [Example 339, 1-{4-[3-Fluoro-4-(4-methyl-1,1-dioxo-7-phenyl-[1,2]thiazepan-2-ylmethyl)-phenyl]-piperazin-1-yl}-ethanone], the IC50 under setting [1] is 15 nM. With `CS(=O)(=O)N1CCC(Nc2ccc(CN3CC4(CC4)CC(c4ccccc4)S3(=O)=O)c(F)c2)CC1` (single isomer, unassigned) [Example 249, 5-(2-fluoro-4-((1-(methylsulfonyl)piperidin-4-yl)amino)benzyl)-7-phenyl-6-thia-5-azaspiro[2.5]octane 6,6-dioxide], the IC50 under setting [1] was 37 nM. For `CC(=O)N1CCN(c2ccc(CN3[C@H](C)COCC(c4ccccc4)S3(=O)=O)c(F)c2)CC1` (single isomer, unassigned) [Example 26], the IC50 under setting [1] is 2000 nM.

Consider `C[C@H]1CCC(c2ccccc2)S(=O)(=O)N1Cc1ccc(C(=O)N2CCCC2CO)cc1` (stereo partly drawn) [Example 290, (2-Hydroxymethyl-pyrrolidin-1-yl)-[4-((3S)-methyl-1,1-dioxo-6-phenyl-[1,2]thiazinan-2-ylmethyl)-phenyl]-methanone], for which, under setting [1], the IC50 came to 1500 nM. On the same count and under the same terms, to `CC(=O)N1CCN(c2ccc(CN3[C@H](C)CCC(c4ccccc4)S3(=O)=O)c(F)c2)CC1` (single isomer, unassigned) [Example 20] belongs 26 nM; to `C[C@H]1CCC(c2ccccc2)S(=O)(=O)N1Cc1ccc(C(=O)N2CCCC(O)CC2)cc1` (stereo partly drawn) [Example 284, (4-Hydroxy-azepan-1-yl)-[4-((3S)-methyl-1,1-dioxo-6-phenyl-[1,2]thiazinan-2-ylmethyl)-phenyl]-methanone], 1430 nM. `C[C@H]1CCC(c2ccccc2)S(=O)(=O)N1Cc1ccc(OC2CN(S(C)(=O)=O)C2)cc1F` (single isomer, unassigned) [Example 36]: the IC50 under setting [1] came out at 71 nM. Take `CC(=O)N1CCN(c2ccc(CN3C4CCCC4CC(c4ccccc4)S3(=O)=O)c(F)c2)CC1` (single isomer, unassigned) [Example 250, 1-(4-(4-((2,2-dioxido-3-phenylhexahydro-cyclopenta[c][1,2]thiazin-1(3H)-yl)methyl)-3-fluorophenyl)piper-azin-1-yl)ethanone]: the IC50 under setting [1] was 11 nM. `CC(=O)N1CCN(c2ccc(CN3[C@H](C)CC(c4ccccc4)S3(=O)=O)c(F)c2)CC1` (stereo partly drawn) [Example 349, 1-{4-[3-Fluoro-4-((3R)-methyl-1,1-dioxo-5-phenyl-isothiazolidin-2-ylmethyl)-phenyl]-piperazin-1-yl}-ethanone]: the IC50 under setting [1] turned out to be 310 nM. `COc1cc(CN2[C@@H](C)CCC(c3ccccc3)S2(=O)=O)ccc1N1CCN(C(C)=O)CC1` (single isomer, unassigned) [Example 162]: under setting [1], the IC50 came out at 812 nM.

Turning to `C[C@@H]1CC(c2ccccc2)S(=O)(=O)N(Cc2ccc(N3CCC(n4cnnc4)CC3)cc2F)C1` (stereo partly drawn) [Example 265, 2-[2-Fluoro-4-(4-[1,2,4]triazol-4-yl-piperidin-1-yl)-benzyl]-(4R)-methyl-6-phenyl-[1,2]thiazinane 1,1-dioxide], the IC50 under setting [1] worked out at 66 nM. `C[C@@H](O)C(=O)N1CCN(c2ccc(CN3CCCCC(c4ccccc4)S3(=O)=O)c(F)c2)CC1` (single isomer, unassigned) [Example 314, 1-{4-[4-(1,1-Dioxo-7-phenyl-[1,2]thiazepan-2-ylmethyl)-3-fluoro-phenyl]-piperazin-1-yl}-2-hydroxy-propan-1-one]: under setting [1], the IC50 came to 237 nM.

Consider `C[C@H]1CCC(c2ccccc2)S(=O)(=O)N1Cc1ccc(N2CC3(CC(n4cnnc4)C3)C2)cc1F` (stereo partly drawn) [Example 424, 2-[3-Fluoro-4-((3S)-methyl-1,1-dioxo-6-phenyl-[1,2]thiazinan-2-ylmethyl)-phenyl]-6-[1,2,4]triazol-4-yl-2-aza-spiro[3.3]heptane], for which the IC50 was determined as 427 nM. Regarding `C[C@H]1CCC(c2ccccc2)S(=O)(=O)N1Cc1ccc(N2CC(n3cnnc3)C2)cc1F` (single isomer, unassigned) [Example 429], the IC50 was 316 nM. For `C[C@H]1CCC(c2ccccc2)S(=O)(=O)N1Cc1ccc(N2CCC(c3nccn3C)CC2)cc1F` (single isomer, unassigned) [Example 139], the IC50 under setting [1] was found to be 1390 nM. On to `C[C@H]1CCC(c2ccccc2)S(=O)(=O)N1Cc1ccc(C(=O)N(C)C2CCS(=O)(=O)C2)cc1` (stereo partly drawn) [Example 289, N-(1,1-Dioxo-tetrahydro-thiophen-3-yl)-N-methyl-4-((3S)-methyl-1,1-dioxo-6-phenyl-[1,2]thiazinan-2-ylmethyl)-benzamide], for which, under setting [1], the IC50 came to 1740 nM.

Take `C[C@H]1CCC(c2ccccc2)S(=O)(=O)N1Cc1ccc(N2CCC(n3cnnc3)CC2)cc1F` (single isomer, unassigned) [Example 150]: the IC50 under setting [1] was found to be 29 nM. As for `C[C@H]1CCC(c2ccccc2)S(=O)(=O)N1Cc1ccc(N2CCC(n3ccnn3)CC2)cc1F` (single isomer, unassigned) [Example 256], the 50% inhibitory concentration (IC50) under setting [1] was found to be 4 nM. As for `CC(=O)N1CCN(c2ccc(CN3[C@@H](C)CCC(c4ccccc4)S3(=O)=O)nc2)CC1` (stereo partly drawn) [Example 67, 1-{4-[6-((3S)-3-Methyl-1,1-dioxo-6-phenyl-[1,2]thiazinan-2-ylmethyl)-pyridin-3-yl]-piperazin-1-yl}-ethanone], the IC50 under setting [1] came out at 1540 nM.

As to `CC(=O)N1CCN(c2ccc(CN3[C@@H](C)CCC(c4cccc(F)c4)S3(=O)=O)c(F)c2)CC1` (single isomer, unassigned) [Example 128], the IC50 under setting [1] is 52 nM.

In the case of `CC(=O)N1CCN(c2ccc(CN3[C@@H](C)CCC(c4ccccc4)S3(=O)=O)c(F)c2)C[C@H]1C(=O)NCCO` (stereo partly drawn) [Example 399, (S)-1-Acetyl-4-[3-fluoro-4-((3S)-methyl-1,1-dioxo-6-phenyl-[1,2]thiazinan-2-ylmethyl)-phenyl]-piperazine-2-carboxylic acid (2-hydroxy-ethyl)-amide], the IC50 turned out to be 1590 nM.

For `O=C(CO)N1CCN(c2ccc(CN3CCCCC(c4ccccc4)S3(=O)=O)cc2)CC1` (single isomer, unassigned) [Example 318, 1-{4-[4-(1,1-Dioxo-7-phenyl-[1,2]thiazepan-2-ylmethyl)-phenyl]-piperazin-1-yl}-2-hydroxy-ethanone], under setting [1], the IC50 was found to be 1970 nM. As for `C[C@H]1CCC(c2ccccc2)S(=O)(=O)N1Cc1ccc(C(=O)N2CCC3(COC3)C2)cc1` (stereo partly drawn) [Example 354, [4-((3S)-Methyl-1,1-dioxo-6-phenyl-[1,2]thiazinan-2-ylmethyl)-phenyl]-(2-oxa-6-aza-spiro[3.4]oct-6-yl)-methanone], under setting [1], the IC50 came to 3010 nM.

As to `C[C@H]1CCC(c2ccccc2)S(=O)(=O)N1Cc1ccc(C(=O)N2CCCC2CCNS(C)(=O)=O)cc1` (stereo partly drawn) [Example 357, N-(2-{1-[4-((3S)-Methyl-1,1-dioxo-6-phenyl-[1,2]thiazinan-2-ylmethyl)-benzoyl]-pyrrolidin-2-yl}-ethyl)-methanesulfonamide], under setting [1], the IC50 is 108 nM.

For the molecule `CC(=O)N1CCN(c2ccc(CN3CC4(COC4)CC(c4ccccc4)S3(=O)=O)c(F)c2)CC1` (single isomer, unassigned) [Example 266, 1-(4-(4-((7,7-dioxido-8-phenyl-2-oxa-7-thia-6-azaspiro[3.5]nonan-6-yl)methyl)-3-fluorophenyl)piper-azin-1-yl)ethanone], the IC50 under setting [1] turned out to be 4330 nM. For the molecule `C[C@H]1CCC(c2ccccc2)S(=O)(=O)N1Cc1ccc(N2CCN(C(=O)CCC#N)CC2)cc1F` (single isomer, unassigned) [Example 73], the IC50 under setting [1] was found to be 466 nM.

The record behind these values is US9115101B2 (Genentech, Inc., priority 2012, dated 2015).
